# Laboratory results as given in ChEMBL document CHEMBL4229343, “Perfluoroarene-based peptide macrocycles that inhibit the Nrf2/Keap1 interaction” (Bioorg Med Chem Lett, 2018).
# *1 amine or outer side, *2 acyl side, *3 side chain or, on linkers, in order; H or OH if unused. Where a SMILES comes first, the peptide text is derived from it. Bridges are numbered along the chain shown (N, C = ends). C6F4(1,4-diyl) = Fc1c(F)c([*:2])c(F)c(F)c1[*:1]
# Tests used:
# THP-1 = test: Antiproliferative activity against human THP1 cells; assay type: cell-based
# [1] = biological target: Kelch-like ECH-associated protein 1 (Homo sapiens, UniProt Q14145); test: Displacement of F-14 from Keap1 Kelch domain (unknown origin) expressed in Escherichia coli BL21 (DE3) after 15 mins by fluorescence polarization assay
# Sequence of Kelch-like ECH-associated protein 1 (Q14145 whole entry, the tested form may be a part): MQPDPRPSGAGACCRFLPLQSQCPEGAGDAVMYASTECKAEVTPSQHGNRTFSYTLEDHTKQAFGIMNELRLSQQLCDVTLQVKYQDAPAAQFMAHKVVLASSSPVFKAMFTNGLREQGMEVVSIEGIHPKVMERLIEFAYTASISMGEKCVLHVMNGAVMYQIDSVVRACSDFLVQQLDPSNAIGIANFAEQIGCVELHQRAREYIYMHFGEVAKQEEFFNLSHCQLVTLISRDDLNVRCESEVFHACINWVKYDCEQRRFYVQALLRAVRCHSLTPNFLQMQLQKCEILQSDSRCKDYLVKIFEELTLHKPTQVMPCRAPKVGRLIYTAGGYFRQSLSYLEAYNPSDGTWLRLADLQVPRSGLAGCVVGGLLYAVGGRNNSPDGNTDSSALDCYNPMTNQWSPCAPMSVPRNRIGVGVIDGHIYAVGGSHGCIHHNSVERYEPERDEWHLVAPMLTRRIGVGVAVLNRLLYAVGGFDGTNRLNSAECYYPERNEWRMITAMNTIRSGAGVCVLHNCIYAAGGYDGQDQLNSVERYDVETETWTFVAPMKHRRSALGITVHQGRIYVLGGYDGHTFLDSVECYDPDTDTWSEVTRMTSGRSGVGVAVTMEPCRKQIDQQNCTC
Ki [1] [µM],SMILES,Activity (THP-1)
,CC(=O)N[C@H]1CSc2c(F)c(F)c(c(F)c2F)SC[C@@H](C(N)=O)NC(=O)[C@H](CCC(=O)O)NC(=O)CNC(=O)[C@H]([C@@H](C)O)NC(=O)[C@H](CCC(=O)O)NC(=O)[C@@H]2CCCN2C(=O)[C@H](CC(=O)O)NC1=O,Non-Toxic
,CC(=O)N[C@H]1CSSC[C@@H](C(=O)O)NC(=O)[C@H](CCC(=O)O)NC(=O)CNC(=O)[C@H]([C@@H](C)O)NC(=O)[C@H](CCC(=O)O)NC(=O)[C@H](CCC(=O)O)NC(=O)[C@H](CC(=O)O)NC1=O (Ac-CDEETGEC-OH; disulfide 1-8),Non-Toxic
151,CC(=O)N[C@H]1CSSC[C@@H](C(N)=O)NC(=O)CNC(=O)[C@H]([C@@H](C)O)NC(=O)[C@H](CCC(=O)O)NC(=O)[C@H](CCC(=O)O)NC1=O (Ac-CEETGC-NH2; disulfide 1-6),Non-Toxic
,CC(=O)N[C@H]1CSSC[C@@H](C(N)=O)NC(=O)[C@H](CCC(=O)O)NC(=O)CNC(=O)[C@H]([C@@H](C)O)NC(=O)[C@H](CCC(=O)O)NC(=O)[C@H](CCC(=O)O)NC(=O)[C@H](CC(=O)O)NC1=O (Ac-CDEETGEC-NH2; disulfide 1-8),Non-Toxic
,C[C@@H](O)[C@@H]1NC(=O)[C@H](CCC(=O)O)NC(=O)[C@H](CCC(=O)O)NC(=O)[C@H](CC(=O)O)NC(=O)[C@@H](N)CSSC[C@@H](C(N)=O)NC(=O)[C@H](CCC(=O)O)NC(=O)CNC1=O (H-CDEETGEC-NH2; disulfide 1-8),Non-Toxic
,"CC(=O)N[C@H]1CSc2c(F)c(F)c(c(F)c2F)SC[C@@H](C(N)=O)NC(=O)[C@H](Cc2ccccc2)NC(=O)[C@H](CCC(=O)O)NC(=O)CNC(=O)[C@H]([C@@H](C)O)NC(=O)[C@H](CCC(=O)O)NC(=O)[C@@H]2CCCN2C(=O)[C@H](CC(=O)O)NC(=O)[C@H](CC(C)C)NC1=O (Ac-CLDPETGEFC-NH2; linker 1-10 via C6F4(1,4-diyl))",Non-Toxic
,CC(=O)N[C@H]1CSSC[C@@H](C(N)=O)NC(=O)[C@H](Cc2ccccc2)NC(=O)[C@H](CCC(=O)O)NC(=O)CNC(=O)[C@H]([C@@H](C)O)NC(=O)[C@H](CCC(=O)O)NC(=O)[C@H](CCC(=O)O)NC(=O)[C@H](CC(=O)O)NC(=O)[C@H](CC(C)C)NC1=O (Ac-CLDEETGEFC-NH2; disulfide 1-10),Non-Toxic
